Experimental data as given in ChEMBL document CHEMBL1201862, “PubChem BioAssay data set” (2004).
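96-well plates; 48 h exposure; 5 concentrations. Endpoints by linear interpolation between flanking doses. Not reached: highest tested concentration assigned. GI50 = concentration required for 50% inhibition of growth.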 Calls of active or inactive are those of the source. Cut-off read from the data, not from the text of the source: active = GI50 up to about 1.1 µM and inactive = higher.

Columns and labels:
Experiment in all cases: growth of human tumour cells (NCI), 48 h
SF-295 = system: SF-295
SW-620 = system: SW-620
Hs-578T = system: Hs-578T
NCI-H522 = system: NCI-H522
CAKI-1 = system: CAKI-1
SK-MEL-28 = system: SK-MEL-28
RPMI-8226 = system: RPMI-8226
MOLT-4 = system: MOLT-4
DU-145 = system: DU-145
UACC-62 = system: UACC-62
K562 = system: K562
SK-MEL-5 = system: SK-MEL-5
HCT-15 = system: HCT-15
SF-539 = system: SF-539
OVCAR-5 = system: OVCAR-5
OVCAR-3 = system: OVCAR-3
M14 = system: M14
COLO 205 = system: COLO 205
SF-268 = system: SF-268
Malme-3M = system: Malme-3M

| SMILES | GI50 (SF-295) | GI50 (SW-620) | GI50 (Hs-578T) | GI50 (NCI-H522) | GI50 (CAKI-1) | GI50 (SK-MEL-28) | GI50 (RPMI-8226) | GI50 (MOLT-4) | GI50 (DU-145) | GI50 (UACC-62) | GI50 (K562) | GI50 (SK-MEL-5) | GI50 (HCT-15) [µM] | GI50 (SF-539) | GI50 (OVCAR-5) | GI50 (OVCAR-3) | GI50 (M14) | GI50 (COLO 205) | GI50 (SF-268) | GI50 (Malme-3M) |
| --- | --- | --- | --- | --- | --- | --- | --- | --- | --- | --- | --- | --- | --- | --- | --- | --- | --- | --- | --- | --- |
| Cc1c(C#N)c2ccccc2c2nc3ccccc3n12 | > 100 µM (inactive) | 81.3 µM (inactive) | 63 µM (inactive) | 16.4 µM (inactive) | 67.9 µM (inactive) | > 100 µM (inactive) | > 100 µM (inactive) | 47.5 µM (inactive) | 43.2 µM (inactive) | > 100 µM (inactive) | > 100 µM (inactive) | 5.82 µM (inactive) | > 100 | 39 µM (inactive) | > 100 µM (inactive) | > 100 µM (inactive) | – | – | – | – |
| CC(=O)N1CC(C)(C)c2c1cc(C)c(O)c2C | > 100 µM (inactive) | > 100 µM (inactive) | > 100 µM (inactive) | > 100 µM (inactive) | – | > 100 µM (inactive) | > 100 µM (inactive) | > 100 µM (inactive) | > 100 µM (inactive) | > 100 µM (inactive) | > 100 µM (inactive) | > 100 µM (inactive) | > 100 | > 100 µM (inactive) | > 100 µM (inactive) | > 100 µM (inactive) | > 100 µM (inactive) | > 100 µM (inactive) | > 100 µM (inactive) | – |
| CCOC(=O)c1c(C)nc2c3ccccc3c(C#N)c(C)n12 | 34.9 µM (inactive) | > 100 µM (inactive) | 32.9 µM (inactive) | 23 µM (inactive) | 79.3 µM (inactive) | > 100 µM (inactive) | > 100 µM (inactive) | > 100 µM (inactive) | 74.8 µM (inactive) | > 100 µM (inactive) | > 100 µM (inactive) | 48.1 µM (inactive) | > 100 | > 100 µM (inactive) | 88.7 µM (inactive) | > 100 µM (inactive) | – | – | – | – |
| CCOC(=O)c1cc2c(C(=O)c3ccc([N+](=O)[O-])cc3)c(C(C)=O)ccc2[nH]1 | 23.6 µM (inactive) | > 100 µM (inactive) | 9.84 µM (inactive) | 8.2 µM (inactive) | 18.3 µM (inactive) | > 100 µM (inactive) | > 100 µM (inactive) | > 100 µM (inactive) | 32.7 µM (inactive) | > 100 µM (inactive) | 26.7 µM (inactive) | 16.6 µM (inactive) | 50 | 17.8 µM (inactive) | > 100 µM (inactive) | > 100 µM (inactive) | > 100 µM (inactive) | > 100 µM (inactive) | 8.3 µM (inactive) | – |
| CN(CCc1ccc(N)cc1)[C@H]1CCCC[C@H]1N1CCCC1 | > 100 µM (inactive) | > 100 µM (inactive) | > 100 µM (inactive) | > 100 µM (inactive) | > 100 µM (inactive) | > 100 µM (inactive) | 66.7 µM (inactive) | 98.4 µM (inactive) | > 100 µM (inactive) | > 100 µM (inactive) | 70.3 µM (inactive) | > 100 µM (inactive) | > 100 | – | > 100 µM (inactive) | > 100 µM (inactive) | > 100 µM (inactive) | > 100 µM (inactive) | > 100 µM (inactive) | > 100 µM (inactive) |
| CSc1nc(Nc2cccc(C(F)(F)F)c2)c2c(N)nn(C)c2n1 | 38 µM (inactive) | > 100 µM (inactive) | > 100 µM (inactive) | 34 µM (inactive) | > 100 µM (inactive) | > 100 µM (inactive) | > 100 µM (inactive) | 49 µM (inactive) | > 100 µM (inactive) | > 100 µM (inactive) | 84.9 µM (inactive) | > 100 µM (inactive) | > 100 | – | > 100 µM (inactive) | > 100 µM (inactive) | 76 µM (inactive) | > 100 µM (inactive) | > 100 µM (inactive) | 59.4 µM (inactive) |
